Source: ChEMBL document CHEMBL1221387, “Prenylflavonoids from Glycyrrhiza uralensis and their protein tyrosine phosphatase-1B inhibitory activities” (Bioorg Med Chem Lett, 2010)
Activity calls are given as the source filed them. The rule behind the calls is not given here.

Target: T1, Tyrosine-protein phosphatase non-receptor type 1 (Homo sapiens) (UniProt P18031)
T1 sequence (whole entry): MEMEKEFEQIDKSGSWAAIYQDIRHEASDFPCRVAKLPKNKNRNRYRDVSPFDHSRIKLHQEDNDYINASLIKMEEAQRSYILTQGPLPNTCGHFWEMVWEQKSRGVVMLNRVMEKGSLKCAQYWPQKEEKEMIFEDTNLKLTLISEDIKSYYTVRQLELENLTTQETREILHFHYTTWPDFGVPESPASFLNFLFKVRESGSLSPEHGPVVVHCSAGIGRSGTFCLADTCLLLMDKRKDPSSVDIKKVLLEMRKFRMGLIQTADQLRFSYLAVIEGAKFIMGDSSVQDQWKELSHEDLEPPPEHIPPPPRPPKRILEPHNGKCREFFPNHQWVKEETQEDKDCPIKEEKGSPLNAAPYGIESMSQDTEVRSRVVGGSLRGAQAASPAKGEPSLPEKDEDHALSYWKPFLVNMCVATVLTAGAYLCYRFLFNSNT
Experiment: Mixed type inhibition of human recombinant PTP1B at 30 uM by Lineweaver-Burke plot analysis

inhibition: Active
SMILES: COc1cc(O)cc2occ(-c3cc(O)c(O)c(CC=C(C)C)c3)c(=O)c12
